Source: patent publication US20240287082A1, “NEW BENZODIAZEPINE DERIVATIVES AS GABA A GAMMA1 PAM” (Hoffmann-La Roche Inc., priority 2021, published 2024)
Where two headings read alike, the source gives them in different places.

Legend:
h-GABA-A α2β2γ1 = h-GABA-A α2β2γ1 (Homo sapiens (Human), UniProt P47869+Q8N1C3); assay: Two-electrode voltage clamp electrophysiology in Xenopus oocytes expressing GABAA receptors, modulation of GABA EC20 current; type: cell-based; conditions: for Efficacy (GABA) %: % modulation of GABA EC20 = 100*(Fold increase−1), compound at 30-fold Ki α2β2γ1; for Fold increase h-GABA-A α2β2γ1 oocyte @ 30-fold Ki: Xenopus oocytes, GABA EC20, test compound at approx. 30-fold its Ki α2β2γ1
[1] = molecular target: human GABAA α5β2γ1 receptor (Homo sapiens (Human), UniProt P31644+Q8N1C3); assay: Radioligand binding assay, competition for [3H]RO7239181, γ1-containing GABAA subtype α5β2γ1

Row | SMILES | Efficacy (GABA) % (h-GABA-A α2β2γ1) | Fold increase h-GABA-A α2β2γ1 oocyte @ 30-fold Ki (h-GABA-A α2β2γ1) | Ki [1] | Ki ([1]; membranes of HEK293F cells, [3H]RO7239181 1.5 nM, mean of two determinations, read-out: Ki h-GABAA α5β2γ1)
1 | C[C@@H]1N=C(c2c(F)cccc2F)c2c(ccc(Br)c2Cl)-n2ccc(=O)nc21 [Example 13, (5S)-9-bromo-8-chloro-7-(2,6-difluorophenyl)-5-methyl-5H-pyrimido[1,2-a][1,4]benzodiazepin-3-one] | 70% | 1.7 | 1 nM | 
2 | CNC(=O)c1cn2c(nc1=O)[C@H](C)N=C(c1c(F)cccc1F)c1c-2ccc(C(F)(F)F)c1Cl [Example 27, (5S)-8-chloro-7-(2,6-difluorophenyl)-N,5-dimethyl-3-oxo-9-(trifluoromethyl)-5H-pyrimido[1,2-a][1,4]benzodiazepine-2-carboxamide] | 113% | 2.13 |  | 6.2 nM
3 | O=c1ccn2c(n1)CN=C(c1ccccc1F)c1c-2ccc(Cl)c1Cl [Example 1, 8,9-dichloro-7-(2-fluorophenyl)-5H-pyrimido[1,2-a][1,4]benzodiazepin-3-one] | 92% | 1.92 | 3.8 nM | 
